According to paper PMC4609890, “Discovery of novel small molecule modulators of Clavibacter michiganensis subsp. michiganensis” (Frontiers in Microbiology, 2015):
Values after ≈ are worked out from the molar mass of the structure shown.

Key:
[1] = tested on: Clavibacter michiganensis subsp. michiganensis (Cmm); assay: Minimum bacteriocidal concentration (MBC) for Cmm; type: cell-based; settings: read-out: MBCs
Experimental: (§1) Seventy-seven selected compounds were re-ordered from ChemBridge in a 96-well format as a powder. The compounds were dissolved in 100 μl DMSO and stored at -80°C until used. […] In addition, ability of Cmm to develop resistance to selected compounds was tested.
(§2) Single step and sequential passage resistance assays were performed as described previously with few modifications ([Ling et al., 2015]). Eleven of the 12 top hit compounds were tested in this experiment and one could not be resynthesized. […] The MBCs for each of these compounds were determined as described previously ([Ling et al., 2015]).

[2] = tested on: Clavibacter michiganensis subsp. michiganensis (Cmm); assay: Resistance evaluation by sequential passage at sub-lethal doses; type: cell-based; settings: 15 passages in liquid NBY at 0.75X MIC
Experimental: as §2
Clavibacter michiganensis subsp. michiganensis cultures grown in NBY broth medium at 28°C for 24 h were suspended in fresh NBY broth and normalized to an OD600 of 0.01 (5 × 10^6 CFU/ml). One-hundred microliters fresh culture was transferred to duplicate wells of a 96-well microtiter plate each containing 0.75× MIC of a test compound (concentration allowing >50% growth inhibition). Cmm cultured in 20 μg/ml chloramphenicol, 50 μg/ml kanamycin, or 2% DMSO, or non-amended NBY broth were used as controls. The bacteria were incubated at 28°C, 150 rpm, for 24 h in the dark. Following incubation, plates were centrifuged at 2,100 × g for 5 min at room temperature. The supernatant was discarded, bacteria were resuspended in 100 μl fresh NBY and transferred into a new 96-well plate containing 0.75× MIC of the same small molecule. This procedure was repeated 14 times. Following 15 passages, bacterial suspensions were assessed for resistance to the test compound by assessing MIC and MBC as noted above.

[3] = tested on: Clavibacter michiganensis subsp. michiganensis (Cmm); assay: Minimum inhibitory concentration (MIC) for Cmm growth; type: cell-based; settings: read-out: MICs
Experimental: Seventy-seven selected compounds were re-ordered from ChemBridge in a 96-well format as a powder. The compounds were dissolved in 100 μl DMSO and stored at -80°C until used. […] In addition, ability of Cmm to develop resistance to selected compounds was tested. […]

[4] = tested on: Clavibacter michiganensis subsp. michiganensis (Cmm); assay: Resistance evaluation by single step at a lethal dose; type: cell-based; settings: 5 days on NBY agar with 2X MIC, 1 × 10^9 CFU
Experimental: as §2
Cmm grown in NBY medium at 28°C for 48 h was centrifuged at 4,700 × g for 15 min at room temperature. Supernatant was discarded and bacteria were resuspended in sterile water to a concentration of 2 × 10^10 CFU/ml). Compounds (2× MIC) were mixed with […] of molten NBY agar medium and transferred to duplicate wells of a 24-well culture plate. Agar in the plate was allowed to solidify in the dark. Fifty microlitre of Cmm culture (1 × 10^9 CFU) was added to test wells, dried in the dark at room temperature, and incubated at 28°C for 5 days in the dark. Bacteria spread on NBY agar with 50 μg/ml kanamycin or NBY agar itself was used as positive and negative controls, respectively. After 5 days of incubation, any colonies that developed were assessed for resistance to the test compounds by determining MIC and the MBC as noted above.

Cmm BL-Cmm17 = assay: Bioluminescent Cmm tomato seedling infection assay; type: in vivo; settings: seeds infested with BL-Cmm17, compound applied to seed, 8-days-old seedlings plated
Experimental: A bioluminescent Cmm strain, BL-Cmm17, was used to monitor the effect of selected small molecules on Cmm infection of tomato seedlings in vivo ([Xu et al., 2010]). Briefly, tomato seeds (cv. OH9242) were infested by soaking in BL-Cmm17 suspension (10^8 CFU/ml) in a 100-ml sterile beaker. The beaker was placed in a Nucerite Desiccator (Nalge Sybron Corporation, Rochester, NY, USA), and a vacuum was applied for 5 min using an Air Cadet pump (Barnant, Barrington, IL, USA) with a maximum of 18 lb/in^2 pressure. Seeds treated similarly with sterilized water were used as controls. After inoculation, seeds were air-dried and one seed was placed in a 1.2 ml library tube containing 400 μl of 1% water agar; tubes were placed in wells of a 96-well plate. The selected compound (1 μl of 2 μmol in 50 μl water) was applied to each seed and the plate was incubated at 25°C under 8 h/16 h light/dark conditions. There were three replicate seeds/plate per treatment. Bioluminescence images were taken using an in vivo imaging system (IVIS Model 100; PerkinElmer, Waltham, MA, USA) 3 and 8 days later. Eight-days-old seedlings were ground in potassium phosphate buffer and extracts were serially diluted and plated on NBY to assess the presence of Cmm.

Bacillus subtilis GB03 = assay: Secondary screen kinetic growth inhibition of B. subtilis; type: cell-based; settings: 200 μM
Experimental: as §1
(§3) Screening for growth inhibition of Cmm strains, plant beneficial bacteria and human gut bacteria was set up similarly to the initial screen using 1 μl of 2 μmol suspensions of each compound. Plates were incubated in a Sunrise^TM Tecan microplate reader for kinetic measurement of growth every 15 min for 24 h. Growth curves were analyzed in DB interface software and the effect of each compound on growth was evaluated based on the ratio of area under growth curve (compound/control) as “no significant effect (ratio > 0.5),” “inhibition (ratio ≤ 0.5),” “static (ratio = 0, bacterial growth revived after streak on a fresh NBY plate)” and “cidal (ratio = 0, bacterial growth not revived)” ([Wallace et al., 2011]).

Cmm strains = assay: Secondary screen kinetic growth inhibition of Cmm strains; type: cell-based, Clavibacter michiganensis subsp. michiganensis; settings: kinetic growth 24 h
Experimental: as §1, §3

[5] = tested on: Gram-negative bacteria tested; assay: Secondary screen kinetic growth inhibition of Gram-negative bacteria; type: cell-based; settings: 200 μM
Experimental: as §1, §3

[6] = tested on: plant beneficial bacteria and human gut bacteria; assay: Secondary screen on plant beneficial bacteria and human gut bacteria (antibacterial spectrum); type: cell-based; settings: compared with other 11 compounds; data not shown
Experimental: as §1, §3

CCCOc1ccc(C(=O)C2=C(O)C(=O)N(CCCN(C)C)C2c2ccc(Cl)cc2)cc1C (stereo not drawn) [Compound 9]
MBC [1]: 100 µM (≈ 47.1 µg/mL)
Resistant colonies after growth at sub-lethal (0.75X MIC) concentration [2]: None
MIC [3]: 50 µM (≈ 23.5 µg/mL)
Resistant colonies after incubation at lethal (2X MIC) concentration [4]: None

COc1cccc(-c2ccc(NC(=O)C3CCCN(Cc4cccc(O)c4)C3)cc2)c1 (stereo not drawn) [Compound 12]
Cmm growth reduction in tomato seedlings (Cmm BL-Cmm17): over 0.5 log
MBC [1]: 25 µM (≈ 10.4 µg/mL)
Resistant colonies after growth at sub-lethal (0.75X MIC) concentration [2]: None
MIC [3]: 12.5 µM (≈ 5.21 µg/mL)
Resistant colonies after incubation at lethal (2X MIC) concentration [4]: None

COc1cccc(-c2ccccc2NC(=O)C2CCN(Cc3ccc(OC)cc3F)CC2)c1 [Compound 1]
MBC [1]: 25 µM (≈ 11.2 µg/mL)
Resistant colonies after growth at sub-lethal (0.75X MIC) concentration [2]: None
MIC [3]: 25 µM (≈ 11.2 µg/mL)
Resistant colonies after incubation at lethal (2X MIC) concentration [4]: None

Cc1cc(O)ccc1Nc1nc(-c2cccs2)cs1 [Compound 3]
MBC [1]: 50 µM (≈ 14.4 µg/mL)
Effect on B. subtilis growth (Bacillus subtilis GB03): cidal (cidal (ratio = 0, bacterial growth not revived))
Resistant colonies after growth at sub-lethal (0.75X MIC) concentration [2]: None
MIC [3]: 50 µM (≈ 14.4 µg/mL)
Effect on Cmm growth (Cmm strains): cidal (cidal (ratio = 0, bacterial growth not revived))
Resistant colonies after incubation at lethal (2X MIC) concentration [4]: None
Effect on growth of Gram-negative bacteria tested [5]: not

Cc1ccnc(Nc2nc(-c3ccc(O)c(O)c3)cs2)c1 [Compound 7]
MBC [1]: 50 µM (≈ 15 µg/mL)
Effect on B. subtilis growth (Bacillus subtilis GB03): cidal (cidal (ratio = 0, bacterial growth not revived))
Resistant colonies after growth at sub-lethal (0.75X MIC) concentration [2]: None
MIC [3]: 50 µM (≈ 15 µg/mL)
Effect on Cmm growth (Cmm strains): cidal (cidal (ratio = 0, bacterial growth not revived))
Resistant colonies after incubation at lethal (2X MIC) concentration [4]: None
Effect on growth of Gram-negative bacteria tested [5]: not

CN(Cc1nc2ccccc2[nH]1)Cc1c[nH]nc1-c1ccc(-c2ccccc2)cc1 [Compound 2]
MBC [1]: 50 µM (≈ 19.7 µg/mL)
Resistant colonies after growth at sub-lethal (0.75X MIC) concentration [2]: None
MIC [3]: 25 µM (≈ 9.84 µg/mL)
Resistant colonies after incubation at lethal (2X MIC) concentration [4]: None

O=C(Nc1cccc(-c2cscn2)c1)C1CCN(C/C=C/c2ccc(F)cc2)CC1 [Compound 6]
MBC [1]: 50 µM (≈ 21.1 µg/mL)
Resistant colonies after growth at sub-lethal (0.75X MIC) concentration [2]: None
MIC [3]: 50 µM (≈ 21.1 µg/mL)
Resistant colonies after incubation at lethal (2X MIC) concentration [4]: None

CC1CCC(C(C)C)C(OC(=O)Cn2c[n+](CC(=O)OC3CC(C)CCC3C(C)C)c3ccccc32)C1 (stereo not drawn) [Compound 5]
MBC [1]: 5 µM
Resistant colonies after growth at sub-lethal (0.75X MIC) concentration [2]: None
MIC [3]: 5 µM
Antibacterial spectrum [6]: broader antibacterial spectrum
Resistant colonies after incubation at lethal (2X MIC) concentration [4]: None

CC(C)Cc1ccc(CN2CCCC(NC(=O)CCn3c(CO)nc4ccccc43)C2)cc1 (stereo not drawn) [Compound 4]
MBC [1]: 100 µM (≈ 44.9 µg/mL)
Resistant colonies after growth at sub-lethal (0.75X MIC) concentration [2]: None
MIC [3]: 100 µM (≈ 44.9 µg/mL)
Resistant colonies after incubation at lethal (2X MIC) concentration [4]: None

CCOC(=O)N1CCN(CC(O)COc2ccc(C3CCCCC3)cc2)CC1 (stereo not drawn) [Compound 8]
MBC [1]: 50 µM (≈ 19.5 µg/mL)
Resistant colonies after growth at sub-lethal (0.75X MIC) concentration [2]: None
MIC [3]: 50 µM (≈ 19.5 µg/mL)
Resistant colonies after incubation at lethal (2X MIC) concentration [4]: None
